# Measured values as given in ChEMBL document CHEMBL4017477, “Synthesis and evaluation of 4,6-disubstituted pyrimidines as CNS penetrant pan-muscarinic antagonists with a novel chemotype” (Bioorg Med Chem Lett, 2017).
# pIC50, pKi: −log10 of the molar value.
# Key:
# [1] = biological target: T1, Muscarinic acetylcholine receptor M1 (Homo sapiens) (UniProt P11229); assay: Antagonist activity at recombinant human M1 receptor expressed in CHO cells co-expressing Gqi5 by calcium mobilization assay relative to acetylcholine; type: functional, cell-based
# T1 sequence (whole entry): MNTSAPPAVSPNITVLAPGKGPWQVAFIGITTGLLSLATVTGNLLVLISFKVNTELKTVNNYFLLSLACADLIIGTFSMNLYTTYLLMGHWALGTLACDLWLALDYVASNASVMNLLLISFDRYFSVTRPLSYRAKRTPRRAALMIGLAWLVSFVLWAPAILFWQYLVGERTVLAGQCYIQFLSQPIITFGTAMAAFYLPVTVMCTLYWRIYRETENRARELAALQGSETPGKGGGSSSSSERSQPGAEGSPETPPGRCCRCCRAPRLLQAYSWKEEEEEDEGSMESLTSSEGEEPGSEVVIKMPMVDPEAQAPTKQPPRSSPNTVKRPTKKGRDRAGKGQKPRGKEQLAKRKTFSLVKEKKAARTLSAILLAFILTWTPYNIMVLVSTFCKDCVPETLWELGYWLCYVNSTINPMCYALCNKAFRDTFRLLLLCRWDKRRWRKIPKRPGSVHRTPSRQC
# [2] = biological target: T2, Muscarinic acetylcholine receptor M3 (Homo sapiens, UniProt P20309); assay: Antagonist activity at recombinant human M3 receptor expressed in CHO cells co-expressing Gqi5 by calcium mobilization assay; type: functional, cell-based
# Target sequence in this assay (P20309 whole entry): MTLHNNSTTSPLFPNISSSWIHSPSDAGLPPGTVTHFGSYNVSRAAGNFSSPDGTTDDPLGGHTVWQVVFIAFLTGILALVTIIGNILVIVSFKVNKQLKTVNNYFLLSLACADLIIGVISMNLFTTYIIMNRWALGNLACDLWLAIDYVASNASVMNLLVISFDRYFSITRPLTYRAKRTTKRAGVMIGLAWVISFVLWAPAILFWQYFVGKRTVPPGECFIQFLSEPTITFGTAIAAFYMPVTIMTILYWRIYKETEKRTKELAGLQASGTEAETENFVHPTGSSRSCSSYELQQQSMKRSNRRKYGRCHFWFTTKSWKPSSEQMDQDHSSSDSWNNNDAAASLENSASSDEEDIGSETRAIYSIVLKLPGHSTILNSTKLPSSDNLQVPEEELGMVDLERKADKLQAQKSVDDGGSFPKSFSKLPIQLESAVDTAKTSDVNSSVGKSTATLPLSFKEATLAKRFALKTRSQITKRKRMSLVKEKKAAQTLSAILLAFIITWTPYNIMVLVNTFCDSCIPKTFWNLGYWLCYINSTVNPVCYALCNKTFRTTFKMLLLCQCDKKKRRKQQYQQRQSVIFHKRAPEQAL
# [3] = biological target: T3, Muscarinic acetylcholine receptor M2 (Homo sapiens) (UniProt P08172); assay: Antagonist activity at recombinant human M2 receptor expressed in CHO cells co-expressing Gqi5 by calcium mobilization assay relative to acetylcholine; type: functional, cell-based
# T3 sequence (whole entry): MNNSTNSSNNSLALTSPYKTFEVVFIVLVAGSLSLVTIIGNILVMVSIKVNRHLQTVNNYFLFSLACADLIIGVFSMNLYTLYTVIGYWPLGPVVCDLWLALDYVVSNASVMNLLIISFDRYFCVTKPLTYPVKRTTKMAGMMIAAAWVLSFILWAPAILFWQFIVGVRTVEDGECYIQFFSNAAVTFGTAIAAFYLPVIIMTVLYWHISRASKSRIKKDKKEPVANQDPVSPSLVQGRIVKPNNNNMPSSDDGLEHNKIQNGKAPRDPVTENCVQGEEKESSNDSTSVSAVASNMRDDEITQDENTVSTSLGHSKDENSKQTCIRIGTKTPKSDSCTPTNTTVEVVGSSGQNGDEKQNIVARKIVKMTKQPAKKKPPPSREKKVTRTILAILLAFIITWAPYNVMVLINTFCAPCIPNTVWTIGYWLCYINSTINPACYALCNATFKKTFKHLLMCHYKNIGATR
# [4] = biological target: T4, Muscarinic acetylcholine receptor M5 (Homo sapiens, UniProt P08912); assay: Antagonist activity at recombinant human M5 receptor expressed in CHO cells co-expressing Gqi5 by calcium mobilization assay; type: functional, cell-based
# T4 sequence (P08912 whole entry): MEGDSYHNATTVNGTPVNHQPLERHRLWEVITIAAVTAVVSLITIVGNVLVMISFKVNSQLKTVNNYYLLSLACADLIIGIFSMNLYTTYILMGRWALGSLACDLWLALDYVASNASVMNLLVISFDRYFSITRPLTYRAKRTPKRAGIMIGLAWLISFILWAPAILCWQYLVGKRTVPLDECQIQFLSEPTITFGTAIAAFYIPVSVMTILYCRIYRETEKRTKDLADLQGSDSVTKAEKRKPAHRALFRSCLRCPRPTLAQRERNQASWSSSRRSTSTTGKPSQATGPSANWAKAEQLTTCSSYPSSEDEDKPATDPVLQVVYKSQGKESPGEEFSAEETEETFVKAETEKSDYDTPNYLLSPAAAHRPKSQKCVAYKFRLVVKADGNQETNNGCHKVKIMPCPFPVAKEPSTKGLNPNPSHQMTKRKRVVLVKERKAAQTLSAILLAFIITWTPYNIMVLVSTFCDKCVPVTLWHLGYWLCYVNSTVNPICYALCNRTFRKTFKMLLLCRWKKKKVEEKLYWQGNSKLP
# [5] = biological target: T5, Muscarinic acetylcholine receptor M1 (Homo sapiens, UniProt P11229); assay: Antagonist activity at recombinant human M1 receptor expressed in CHO cells co-expressing Gqi5 by calcium mobilization assay; type: functional, cell-based
# T5 sequence (P11229 whole entry): T1 sequence (whole entry)
# [6] = biological target: T6, Muscarinic acetylcholine receptor M4 (Homo sapiens) (UniProt P08173); assay: Antagonist activity at recombinant human M4 receptor expressed in CHO cells co-expressing Gqi5 by calcium mobilization assay relative to acetylcholine; type: functional, cell-based
# T6 sequence (whole entry): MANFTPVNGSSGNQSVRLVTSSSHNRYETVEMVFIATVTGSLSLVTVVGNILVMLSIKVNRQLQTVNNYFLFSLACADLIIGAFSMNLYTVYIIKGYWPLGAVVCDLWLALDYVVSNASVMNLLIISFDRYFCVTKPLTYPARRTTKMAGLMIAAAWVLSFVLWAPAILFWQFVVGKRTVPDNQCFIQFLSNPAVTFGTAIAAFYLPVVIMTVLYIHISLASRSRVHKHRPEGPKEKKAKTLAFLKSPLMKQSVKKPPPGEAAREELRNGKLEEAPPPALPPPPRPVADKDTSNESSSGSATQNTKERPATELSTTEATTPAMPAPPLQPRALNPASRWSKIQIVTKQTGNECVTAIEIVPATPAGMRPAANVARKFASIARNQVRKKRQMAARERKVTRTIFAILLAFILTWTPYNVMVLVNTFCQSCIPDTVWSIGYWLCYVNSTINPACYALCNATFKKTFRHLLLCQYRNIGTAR
# [7] = biological target: T7, Muscarinic acetylcholine receptor M4 (Homo sapiens, UniProt P08173); assay: Displacement of [3H]-NMS from recombinant human M4 receptor expressed in CHO cell membranes
# T7 sequence (P08173 whole entry): T6 sequence (whole entry)
# [8] = biological target: T2, Muscarinic acetylcholine receptor M3; assay: Antagonist activity at recombinant human M3 receptor expressed in CHO cells co-expressing Gqi5 by calcium mobilization assay relative to acetylcholine; type: functional, cell-based
# Target sequence in this assay (P20309 whole entry, looked up): as the sequence (P20309 whole entry) above
# [9] = biological target: T7, Muscarinic acetylcholine receptor M4; assay: Antagonist activity at recombinant human M4 receptor expressed in CHO cells co-expressing Gqi5 by calcium mobilization assay; type: functional, cell-based; conditions: for pIC50: read-out: IC50; for IC50: read-out: pIC50 (converted)
# [10] = biological target: T8, Muscarinic acetylcholine receptor M2 (Homo sapiens, UniProt P08172); assay: Antagonist activity at recombinant human M2 receptor expressed in CHO cells co-expressing Gqi5 by calcium mobilization assay; type: functional, cell-based
# T8 sequence (P08172 whole entry): T3 sequence (whole entry)
# [11] = biological target: T9, Muscarinic acetylcholine receptor M5 (Homo sapiens) (UniProt P08912); assay: Antagonist activity at recombinant human M5 receptor expressed in CHO cells co-expressing Gqi5 by calcium mobilization assay relative to acetylcholine; type: functional, cell-based
# T9 sequence (whole entry): T4 sequence (P08912 whole entry)
# [12] = Ratio of unbound brain to plasma concentration in rat; type: ADME
# [13] = Brain to plasma partition coefficient, Kp of the compound in rat; type: ADME
# [14] = biological target: T10, Muscarinic acetylcholine receptor M4 (Rattus norvegicus, UniProt P08485); assay: Antagonist activity at rat M4 receptor by calcium mobilization assay; type: functional
# T10 sequence (P08485 whole entry): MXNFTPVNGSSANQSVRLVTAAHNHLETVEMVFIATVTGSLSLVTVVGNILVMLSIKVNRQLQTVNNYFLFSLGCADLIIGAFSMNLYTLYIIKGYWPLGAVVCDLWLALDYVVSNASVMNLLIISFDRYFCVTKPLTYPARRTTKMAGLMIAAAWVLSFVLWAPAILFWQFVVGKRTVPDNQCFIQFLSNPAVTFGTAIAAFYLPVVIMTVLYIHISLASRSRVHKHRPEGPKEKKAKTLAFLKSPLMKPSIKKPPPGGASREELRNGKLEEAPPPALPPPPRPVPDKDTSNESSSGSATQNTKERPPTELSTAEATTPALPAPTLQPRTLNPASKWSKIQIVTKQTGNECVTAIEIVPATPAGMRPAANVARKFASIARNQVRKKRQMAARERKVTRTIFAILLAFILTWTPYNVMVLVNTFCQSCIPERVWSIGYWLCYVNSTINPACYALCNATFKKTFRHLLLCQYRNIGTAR
# Brain = assay: Unbound brain concentration in rat; type: ADME, tissue-based; conditions: in vivo
# [15] = biological target: T11, Muscarinic acetylcholine receptor M4 (Rattus norvegicus) (UniProt P08485); assay: Antagonist activity at rat M4 receptor by calcium mobilization assay relative to acetylcholine; type: functional
# T11 sequence (whole entry): T10 sequence (P08485 whole entry)
# Plasma [16] = assay: Unbound plasma concentration in rat; type: ADME, cell-free
# Plasma [17] = assay: Unbound plasma concentration in human; type: ADME, cell-free
Compound,pIC50 [2],pIC50 [4],pIC50 [5],Emin [6] [%],pIC50 [9],pIC50 [10],IC50 [9] [nM],also measured
O=C(C1CCN(c2cc(Oc3ccc(F)cc3F)ncn2)CC1)N1CCc2ccccc2C1,6.42,6.29,6.60,3,7.00,6.48,,Emin [1]: < 6%; Emin [3]: < 6%; pKi [7]: 7.99; Emin [8]: < 6%; Emin [11]: < 6%
CN(Cc1ccccc1)C(=O)C1CCN(c2cc(Oc3ccc(F)cc3F)ncn2)CC1,,,,,< 5.00,,,
O=C(C1CCN(c2cc(Oc3ccc(F)cc3F)ncn2)CC1)N1CCCc2ccccc2C1,,,,6,5.98,,,
O=C(C1CCN(c2cc(Oc3ccccc3F)ncn2)CC1)N1CCc2ccccc2C1,6.39,6.14,6.49,3.2,6.89,6.42,123,"Emin [1]: < 6%; Kp uu ([12]; brain/plasma, read-out: K(p,uu,brain)): 0.75; Emin [3]: < 6%; Kp ([13]; brain/plasma, read-out: Kp): 0.68; Emin [8]: < 6%; Emin [11]: < 6%"
CCc1ccc(Oc2cc(N3CCC(C(=O)N4CCc5ccccc5C4)CC3)ncn2)cc1,> 5.82,> 5.82,> 5.82,5.3,6.42,> 5.82,347,"K(p,uu,brain) ([12]; brain): 0.36; pIC50 ([14]; read-out: IC50): 6.23; IC50 ([14]; read-out: pIC50 (converted)): 562 nM; Fu (Brain): 0.001; Emin [15]: 13.1%; Kp [13]: 1.45; Fu (Plasma [16]): 0.004; Fu (Plasma [17]): 0.001"
O=C(C1CCN(c2cc(Oc3cccc(F)c3)ncn2)CC1)N1CCc2ccccc2C1,,,,3.2,6.51,,,
O=C(C1CCN(c2cc(Oc3ccc(F)cc3)ncn2)CC1)N1CCc2ccccc2C1,,,,3.5,6.62,,229,
O=C(C1CCN(c2cc(Oc3ccc(Cl)cc3)ncn2)CC1)N1CCc2ccccc2C1,6.44,6.16,6.50,3,6.85,6.45,132,Emin [1]: < 6%; Emin [3]: < 6%; Emin [8]: < 6%; Emin [11]: < 6%
O=C(C1CCN(c2cc(Oc3ccc(F)cc3F)ncn2)CC1)N1CCC2CCCCC2C1 (stereo unspecified),,,,5.1,6.39,,,
O=C(C1CCN(c2cc(Oc3cccc(F)c3F)ncn2)CC1)N1CCc2ccccc2C1,,,,3.1,6.72,,170,
O=C(C1CCN(c2cc(Oc3c(F)cccc3F)ncn2)CC1)N1CCc2ccccc2C1,,,,7,,,,
Cc1ccc(Oc2cc(N3CCC(C(=O)N4CCc5ccccc5C4)CC3)ncn2)cc1,,,,3.3,6.51,,,
